Laboratory results published in ChEMBL document CHEMBL6071130, “A comprehensive review of small molecule drugs approved by the FDA in 2023: Advances and prospects” (Eur J Med Chem, 2024).

How the values were obtained:
[1] = Half life in mouse; type: ADME, organism-based; conditions: in vivo
in vivo = conditions: mouse, po
Description: Oral bioavailability in mouse

Description for Gamma-secretase: Inhibition of Gamma-secretase (unknown origin)

Row | IC50 (Gamma-secretase) | half-life [1] | bioavailability (in vivo) | Structure (SMILES)
1 | 20 nM | – | – | C[C@H](NC(=O)Cc1cc(F)cc(F)c1)C(=O)N[C@H](C(=O)OC(C)(C)C)c1ccccc1
2 | – | 7 h | 60% | CCO[C@H]1CCN(Cc2c(OC)cc(C)c3[nH]ccc23)[C@H](c2ccc(C(=O)O)cc2)C1 [IPTACOPAN]
